The values that follow come from patent publication US20180256592A1, “ANTIBACTERIAL COMPOSITIONS” (priority 2015, published 2018).

What all share (type): cell-based
Experiment [1] concerns KP S 440 (OXA 181, SHV, TEM, CTX-M 1). Put plainly: MIC by agar dilution (MHA, CLSI). Here is the method:
(§1) The antibacterial activity of combinations according to the invention was investigated against various bacterial strains. In a typical study, minimum inhibitory concentrations (MICs) were determined using Muller Hinton Agar (MHA) (BD, USA) according to Clinical and Laboratory Standards Institute (CLSI) recommendations, (Clinical and Laboratory Standards Institute (CLSI), Performance Standards for Antimicrobial Susceptibility Testing, 20th Informational Supplement, M 100-S20, Volume 30, No. 1, 2010). In short, the inocula were adjusted to deliver about […] colony forming units (CFU) per spot with a multipoint inoculator (Applied Quality Services, UK). The plates were pored with doubling concentration range of the test combinations according to invention containing MHA. The plates were inoculated and were incubated at 35° C. for 18 hours.

The test system of experiment [2] is KP S 691 (OXA 181, SHV, TEM, CTX-M 1). Put plainly: MIC by agar dilution (MHA, CLSI). The method, then:
as §1
A general note: In agar dilution, organisms are placed on agar that contains the substance at set levels.

The test system of experiment [3] is Klebsiella H 515 (KPC, class A). The experiment in a line: MIC by agar dilution (MHA, CLSI). Here is the method:
as §1

In experiment [4] the test system is Klebsiella H 520 (KPC, class A). Put plainly: MIC by agar dilution (MHA, CLSI). The method, then: as §1
Experiment [5] has as its system Klebsiella H 521 (KPC, class A). The experiment in a line: MIC by agar dilution (MHA, CLSI). The method, then: as §1
Experiment [6] concerns Klebsiella H 523 (KPC, class A). Put plainly: MIC by agar dilution (MHA, CLSI). The method, then:
as §1

Experiment [7] deals with Klebsiella J 101 (TEM, SHV, OMP). Put plainly: MIC by agar dilution (MHA, CLSI). The method, then:
as §1

Experiment [8] has as its system Klebsiella J 102 (TEM, SHV, OMP). Put plainly: MIC by agar dilution (MHA, CLSI). The method, then: as §1
Experiment [9] deals with Klebsiella J 117 (SHV, OMP). Put plainly: MIC by agar dilution (MHA, CLSI). The method, then: as §1
In experiment [10] the test system is Klebsiella J 130 (SHV, OMP). The experiment in a line: MIC by agar dilution (MHA, CLSI). The method, then:
as §1

A further experiment relates to NCTC KP 13442 (OXA-48). Put plainly: MIC by agar dilution (MHA, CLSI). The method, then:
as §1

Experiment [11] deals with highly resistant gram negative bacterial strains. Put plainly: MIC by agar dilution (MHA, CLSI), whole strain panel of Table 1. The note with it: for MIC: read-out: MICs when used alone. The method, then:
as §1

Setting [12] is: KP S 691 (OXA 181, SHV, TEM, CTX-M 1), + clavulanic acid 4 μg/ml.

The structures appear in SMILES notation.

Take `C=CC1=C(C(=O)O)N2C(=O)[C@@H](NC(=O)/C(=N\O)c3csc(N)n3)[C@H]2SC1` [Cefdinir, cefdinir]: the “MIC in presence of Clavulanic acid (4 μg/ml)” value in experiment [1] (+ clavulanic acid 4 μg/ml), in experiment [2] (setting [12]), in experiment [3] (+ clavulanic acid 4 μg/ml), in experiment [4] (+ clavulanic acid 4 μg/ml), in experiment [5] (+ clavulanic acid 4 μg/ml) and in experiment [6] (+ clavulanic acid 4 μg/ml) was >32 µg/mL throughout. The “MIC in presence of Clavulanic acid (4 μg/ml)” value in [7] (+ clavulanic acid 4 μg/ml) is >32 µg/mL; in experiment [8] (+ clavulanic acid 4 μg/ml) it was >32 µg/mL; in [9] (+ clavulanic acid 4 μg/ml), 0.5 µg/mL; in experiment [10] (+ clavulanic acid 4 μg/ml), 16 µg/mL; in the experiment on NCTC KP 13442 (OXA-48) (+ clavulanic acid 4 μg/ml), 32 µg/mL. Further, the MIC in experiment [1] (drug alone), in experiment [2], in experiment [3] (drug alone), in [4] (drug alone), in experiment [5] (drug alone) and in experiment [6] (drug alone) was > 32 µg/mL in each case. Further, the MIC in experiment [7] (drug alone) is > 32 µg/mL; in experiment [8] (drug alone), > 32 µg/mL; in experiment [9] (drug alone), > 32 µg/mL; in experiment [10] (drug alone) it was > 32 µg/mL; in the experiment on NCTC KP 13442 (OXA-48) (drug alone), 32 µg/mL.
`CC1(C)[C@H](C(=O)O)N2C(=O)C[C@H]2S1(=O)=O` [Sulbactam, sulbactam]: in experiment [11], the MIC was > 32 µg/mL.
For `COCC1=C(C(=O)O)N2C(=O)[C@@H](NC(=O)/C(=N\OC)c3csc(N)n3)[C@H]2SC1` [Cefpodoxime, cefpodoxime], the “MIC of Cefpodoxime in presence of Clavulanic acid (4 μg/ml)” value in experiment [1] (+ clavulanic acid 4 μg/ml), in experiment [2] (setting [12]), in experiment [3] (+ clavulanic acid 4 μg/ml), in [4] (+ clavulanic acid 4 μg/ml), in experiment [5] (+ clavulanic acid 4 μg/ml) and in [6] (+ clavulanic acid 4 μg/ml) was >32 μ/ml each time. The “MIC of Cefpodoxime in presence of Clavulanic acid (4 μg/ml)” value is >32 μ/ml in experiment [7] (+ clavulanic acid 4 μg/ml); >32 μ/ml in experiment [8] (+ clavulanic acid 4 μg/ml); 4 μ/ml in experiment [9] (+ clavulanic acid 4 μg/ml); 32 μ/ml in [10] (+ clavulanic acid 4 μg/ml); 1 μ/ml in the experiment with NCTC KP 13442 (OXA-48) (+ clavulanic acid 4 μg/ml). For the same compound, the “MIC of Cefpodoxime, Control (Cefpodoxime alone)” value in [1] (drug alone) is >32 μ/ml; in experiment [2] (KP S 691 (OXA 181, SHV, TEM, CTX-M 1), drug alone), >32 μ/ml; in experiment [3] (drug alone) it was >32 μ/ml; in experiment [4] (drug alone), >32 μ/ml; in [5] (drug alone), >32 μ/ml; in experiment [6] (drug alone) it was >32 μ/ml. For the same compound, the “MIC of Cefpodoxime, Control (Cefpodoxime alone)” value is reported as >32 μ/ml in [7] (drug alone); >32 μ/ml in experiment [8] (drug alone); >32 μ/ml in experiment [9] (drug alone); >32 μ/ml in experiment [10] (drug alone); 4 μ/ml in the experiment with NCTC KP 13442 (OXA-48) (drug alone).
As for `Nc1nc(/C(=C/CC(=O)O)C(=O)N[C@@H]2C(=O)N3C(C(=O)O)=CCS[C@H]23)cs1` [Ceftibuten, ceftibuten], the “MIC in presence of Clavulanic acid (4 μg/ml)” value in experiment [1] (+ clavulanic acid 4 μg/ml) is 2 µg/mL; in experiment [2] (setting [12]), 1 µg/mL; in experiment [3] (+ clavulanic acid 4 μg/ml), 4 µg/mL; in experiment [4] (+ clavulanic acid 4 μg/ml), 4 µg/mL; in [5] (+ clavulanic acid 4 μg/ml), 4 µg/mL; in experiment [6] (+ clavulanic acid 4 μg/ml), 4 µg/mL. For the same compound, the “MIC in presence of Clavulanic acid (4 μg/ml)” value stood at 8 µg/mL in experiment [7] (+ clavulanic acid 4 μg/ml); 8 µg/mL in experiment [8] (+ clavulanic acid 4 μg/ml); 0.12 µg/mL in experiment [9] (+ clavulanic acid 4 μg/ml); 4 µg/mL in [10] (+ clavulanic acid 4 μg/ml); 0.12 µg/mL with NCTC KP 13442 (OXA-48) (+ clavulanic acid 4 μg/ml). Moreover, the “MIC in presence of Sulbactam (4 μg/ml)” value in experiment [1] (+ sulbactam 4 μg/ml) amounted to 4 µg/mL; in experiment [2] (KP S 691 (OXA 181, SHV, TEM, CTX-M 1), + sulbactam 4 μg/ml), 2 µg/mL; in experiment [3] (+ sulbactam 4 μg/ml), 8 µg/mL; in [4] (+ sulbactam 4 μg/ml), 8 µg/mL; in experiment [5] (+ sulbactam 4 μg/ml) it was 16 µg/mL; in experiment [6] (+ sulbactam 4 μg/ml), 4 µg/mL. Further, the “MIC in presence of Sulbactam (4 μg/ml)” value in [7] (+ sulbactam 4 μg/ml) is 32 µg/mL; in experiment [8] (+ sulbactam 4 μg/ml) it was 32 µg/mL; in experiment [9] (+ sulbactam 4 μg/ml), 32 µg/mL; in experiment [10] (+ sulbactam 4 μg/ml) it was >32 µg/mL; in the experiment with NCTC KP 13442 (OXA-48) (+ sulbactam 4 μg/ml) it was 0.25 µg/mL. Further, the “MIC in presence of Tazobactam (4 μg/ml)” value in experiment [1] (+ tazobactam 4 μg/ml) was determined as 4 µg/mL; in experiment [2] (KP S 691 (OXA 181, SHV, TEM, CTX-M 1), + tazobactam 4 μg/ml) it was 2 µg/mL; in experiment [3] (+ tazobactam 4 μg/ml) it was 8 µg/mL; in [4] (+ tazobactam 4 μg/ml), 16 µg/mL; in experiment [5] (+ tazobactam 4 μg/ml), 16 µg/mL; in experiment [6] (+ tazobactam 4 μg/ml), 8 µg/mL. For the same compound, the “MIC in presence of Tazobactam (4 μg/ml)” value was 32 µg/mL in [7] (+ tazobactam 4 μg/ml); 32 µg/mL in experiment [8] (+ tazobactam 4 μg/ml); 32 µg/mL in experiment [9] (+ tazobactam 4 μg/ml); >32 µg/mL in experiment [10] (+ tazobactam 4 μg/ml); 0.25 µg/mL in the experiment with NCTC KP 13442 (OXA-48) (+ tazobactam 4 μg/ml). Also, the MIC in experiment [1] (drug alone) was determined as 16 µg/mL; in experiment [2], 8 µg/mL; in experiment [3] (drug alone), 16 µg/mL; in experiment [4] (drug alone) it was 32 µg/mL; in experiment [5] (drug alone) it was 32 µg/mL; in [6] (drug alone) it was 16 µg/mL. In addition, the MIC in experiment [7] (drug alone) was > 32 µg/mL; in experiment [8] (drug alone), 32 µg/mL; in [9] (drug alone), 32 µg/mL; in experiment [10] (drug alone), > 32 µg/mL; in the experiment with NCTC KP 13442 (OXA-48) (drug alone), 0.25 µg/mL. Further, the “change of MIC values of ceftibuten in the presence of clavulanic acid” value in [11] (strains of Table 1, clavulanic acid 4 μg/ml) is given as “significantly reduced”.
For the compound `C=CC1=C(C(=O)O)N2C(=O)[C@@H](NC(=O)/C(=N\OCC(=O)O)c3csc(N)n3)[C@H]2SC1` [Cefixime, cefixime], the “MIC in presence of Clavulanic acid (4 μg/ml)” value in experiment [1] (+ clavulanic acid 4 μg/ml), in experiment [2] (setting [12]), in [3] (+ clavulanic acid 4 μg/ml), in [4] (+ clavulanic acid 4 μg/ml), in experiment [5] (+ clavulanic acid 4 μg/ml) and in experiment [6] (+ clavulanic acid 4 μg/ml) was 16 µg/mL each time. The “MIC in presence of Clavulanic acid (4 μg/ml)” value in experiment [7] (+ clavulanic acid 4 μg/ml) was >32 µg/mL; in [8] (+ clavulanic acid 4 μg/ml), >32 µg/mL; in experiment [9] (+ clavulanic acid 4 μg/ml), 0.5 µg/mL; in experiment [10] (+ clavulanic acid 4 μg/ml), 16 µg/mL; in the experiment with NCTC KP 13442 (OXA-48) (+ clavulanic acid 4 μg/ml), 0.25 µg/mL. In addition, the MIC in experiment [1] (drug alone), in [2], in experiment [3] (drug alone), in [4] (drug alone), in experiment [5] (drug alone) and in experiment [6] (drug alone) was > 32 µg/mL in each case. The MIC in [7] (drug alone) was > 32 µg/mL; in experiment [8] (drug alone), > 32 µg/mL; in experiment [9] (drug alone), > 32 µg/mL; in experiment [10] (drug alone) it was > 32 µg/mL; with NCTC KP 13442 (OXA-48) (drug alone), 0.25 µg/mL.
For the compound `O=C(O)[C@H]1/C(=C/CO)O[C@@H]2CC(=O)N21` [Clavulanic acid, clavulanic acid], the MIC in experiment [11] is > 32 µg/mL.
With `C[C@]1(Cn2ccnn2)[C@H](C(=O)O)N2C(=O)C[C@H]2S1(=O)=O` [Tazobactam, tazobactam], in experiment [11], the MIC was > 32 µg/mL.
With `C[C@@H](O)[C@H]1C(=O)N2C(C(=O)O)=C(SCCN=CN)C[C@H]12` [Imipenem], the MIC in [1] (drug alone) was 2 µg/mL; in [3] (drug alone) it was 16 µg/mL; in experiment [4] (drug alone), > 32 µg/mL; in [5] (drug alone), > 32 µg/mL; in [6] (drug alone), > 32 µg/mL; in [7] (drug alone) it was 4 µg/mL. In addition, the MIC in experiment [8] (drug alone) was 8 µg/mL; in [9] (drug alone), 2 µg/mL; in [10] (drug alone), 4 µg/mL; in the experiment with NCTC KP 13442 (OXA-48) (drug alone), 2 µg/mL.
